Structures can show the parent of a compound that is named as a salt. Where two headings read alike, the source gives them in different places.
How the values were obtained:
Assay type in all cases: cell-based
S. aureus ATCC 25923 = test: MIC, CLSI broth microdilution (Table 1); settings: Staphylococcus aureus
[1] = test system: S. aureus ATCC 43300 (MRSA, FQ-S); test: MIC, CLSI broth microdilution (Table 1); settings: Staphylococcus aureus, read-out: MIC S. aureus ATCC 43300 (MRSA, FQ-S)
[2] = test system: S. aureus BAA-1720 (MRSA, FQ-R); test: MIC, CLSI broth microdilution (Table 1); settings: Staphylococcus aureus, read-out: MIC S. aureus BAA-1720 (MRSA, FQ-R)
E. faecium ATCC 19434 = test: MIC, CLSI broth microdilution (Table 1); settings: Enterococcus faecium
E. faecalis ATCC 29212 = test: MIC, CLSI broth microdilution (Table 1); settings: Enterococcus faecalis
S. pneumonia ATCC 49619 = test: MIC, CLSI broth microdilution (Table 1); settings: Streptococcus pneumoniae, ATCC49619, read-out: MIC S. pneumonia ATCC 49619
E. coli ATCC 25922 = test: MIC, CLSI broth microdilution (Table 2); settings: Escherichia coli
A. baumannii ATCC 19606 = test: MIC, CLSI broth microdilution (Table 2); settings: Acinetobacter baumannii, ATCC19606, read-out: MIC A. baumannii B. ATCC 19606
P. aeruginosa ATCC 27853 = test: MIC, CLSI broth microdilution (Table 2); settings: Pseudomonas aeruginosa
K. pneumoniae ATCC 33495 = test: MIC, CLSI broth microdilution (Table 2); settings: Klebsiella pneumoniae
H. influenzae ATCC 49247 = test: MIC, CLSI broth microdilution (Table 2); settings: Haemophilus influenzae
[3] = test system: S. maltophilia ATCC 17677; test: MIC, CLSI broth microdilution (Table 2); settings: Stenotrophomonas maltophilia
[4] = test system: Bacillus anthracis Ames strain; test: microbe, parasite or virus in culture
[5] = test system: Brucella abortus ATCC 23448; test: microbe, parasite or virus in culture; settings: ATCC23448
[6] = test system: Burkholderia mallei ATCC 23344; test: microbe, parasite or virus in culture; settings: ATCC23344
[7] = test system: Burkholderia pseudomallei ATCC 23343; test: microbe, parasite or virus in culture; settings: ATCC23343
[8] = test system: Francisella tularensis Schu S4; test: microbe, parasite or virus in culture; settings: SCHUS4
Yersinia pestis C092 = test: microbe, parasite or virus in culture
[9] = ATCC25923, read-out: MIC S. aureus ATCC 25923
[10] = ATCC19434, read-out: MIC E. faecium ATCC 19434
[11] = ATCC29212, read-out: MIC E. faecalis ATCC 29212
[12] = ATCC25922, read-out: MIC E. coli ATCC 25922
[13] = ATCC27853, read-out: MIC P. aeruginosa ATCC 27853
[14] = ATCC33495, read-out: MIC K. pneumoniae ATCC 33495
[15] = ATCC49247, read-out: MIC H. influenzae ATCC 49247
[16] = ATCC17677, read-out: MIC S. maltophilia ATCC 17677
[17] = ATCC25923, Gram positive, MHB, 37° C., 16-20 hours, read-out: MIC S. aureus ATCC 25923
[18] = Gram positive, MHB, 37° C., 16-20 hours
[19] = ATCC19434, Gram positive, MHB, 37° C., 16-20 hours, read-out: MIC E. faecium ATCC 19434
[20] = ATCC29212, Gram positive, MHB, 37° C., 16-20 hours, read-out: MIC E. faecalis ATCC 29212
[21] = ATCC25922, Gram negative, MHB, 37° C., 16-20 hours, read-out: MIC E. coli ATCC 25922
[22] = ATCC27853, Gram negative, MHB, 37° C., 16-20 hours, read-out: MIC P. aeruginosa ATCC 27853
[23] = ATCC49247, Gram negative, MHB, 37° C., 16-20 hours, read-out: MIC H. influenzae ATCC 49247

Compound	MIC (S. aureus ATCC 25923; [9]) [µg/mL]	MIC [1] [µg/mL]	MIC [2] [µg/mL]	MIC (E. faecium ATCC 19434; [10]) [µg/mL]	MIC (E. faecalis ATCC 29212; [11]) [µg/mL]	MIC (S. pneumonia ATCC 49619) [µg/mL]	MIC (E. coli ATCC 25922; [12]) [µg/mL]	MIC (A. baumannii ATCC 19606) [µg/mL]	MIC (P. aeruginosa ATCC 27853; [13]) [µg/mL]	MIC (K. pneumoniae ATCC 33495; [14]) [µg/mL]	MIC (H. influenzae ATCC 49247; [15]) [µg/mL]	MIC [3, 16] [µg/mL]	MIC [4] [µg/mL]	MIC [5] [µg/mL]	MIC [6] [µg/mL]	MIC [7] [µg/mL]	MIC [8] [µg/mL]	MIC (Yersinia pestis C092) [µg/mL]	MIC (S. aureus ATCC 25923; [17]) [µg/mL]	MIC [1, 18] [µg/mL]	further results
Cc1c(-c2ccc(N)nc2)ccn2c(=O)c(C(=O)O)cc(C3CC3)c12 [Example 21 K salt, 8-(6-amino-pyridin-3-yl)-1-cyclopropyl-9-methyl-4-oxo-4H-quinolizine-3-carboxylic acid]	0.008	0.008	0.25	0.5	0.032	0.032	0.016 to 0.032	0.064 to 0.125	1 to 2	0.064	≤ 0.004	0.125	0.016	0.063	0.125 to 0.25	0.25 to 0.5	0.031	0.031	–	–	–
Cc1c(-c2cc(F)c(N)cc2F)ccn2c(=O)c(C(=O)O)cc(C3CC3)c12 [Example 28 K salt, 8-(4-amino-2,5-difluoro-phenyl)-1-cyclopropyl-9-methyl-4-oxo-4H-quinolizine-3-carboxylic acid]	≤ 0.004	≤ 0.004	0.064	0.25	0.016	0.032	0.032 to 0.064	0.125	2	0.25 to 0.5	≤ 0.004	0.125	0.004	0.031 to 0.063	0.125 to 0.25	0.125	0.008	0.016 to 0.031	–	–	–
Cc1c(-c2ccc(CO)cc2)ccn2c(=O)c(C(=O)O)cc(C3CC3)c12 [Example 48 K salt, 1-cyclopropyl-8-(4-hydroxy-methyl-phenyl)-9-methyl-4-oxo-4H-quinolizine-3-carboxylic acid]	–	–	–	–	–	0.125	–	0.125	–	–	–	–	0.008	0.031	0.125	0.125	0.016	0.031	0.008 to 0.016	0.008	MIC [2, 18]: 0.5 µg/mL; MIC (E. faecium ATCC 19434; [19]): 1 µg/mL; MIC (E. faecalis ATCC 29212; [20]): 0.032 to 0.064 µg/mL; MIC (E. coli ATCC 25922; [21]): 0.064 µg/mL; MIC (P. aeruginosa ATCC 27853; [22]): 2 µg/mL; MIC (K. pneumoniae ATCC 33495; ATCC33495, Gram negative, MHB, 37° C., 16-20 hours, read-out: MIC K. pneumoniae ATCC 33495): 0.25 µg/mL; MIC (H. influenzae ATCC 49247; [23]): ≤ 0.004 µg/mL; MIC ([3]; ATCC17677, Gram negative, MHB, 37° C., 16-20 hours, read-out: MIC S. maltophilia ATCC 17677): 0.25 µg/mL
Cc1c(-c2ccc(F)c(N)c2)ccn2c(=O)c(C(=O)O)cc(C3CC3)c12 [Example 8 K salt, 8-(3-amino-4-fluoro-phenyl)-1-cyclopropyl-9-methyl-4-oxo-4H-quinolizine-3-carboxylic acid]	–	–	–	–	–	0.125	–	0.064 to 0.125	–	0.125	–	0.125	0.008	0.063	0.25	0.125	0.031	0.031	0.008	0.008	MIC [2, 18]: 0.25 µg/mL; MIC (E. faecium ATCC 19434; [19]): 0.5 µg/mL; MIC (E. faecalis ATCC 29212; [20]): 0.032 µg/mL; MIC (E. coli ATCC 25922; [21]): 0.032 to 0.064 µg/mL; MIC (P. aeruginosa ATCC 27853; [22]): 2 µg/mL; MIC (H. influenzae ATCC 49247; [23]): 0.064 µg/mL
Cc1c(-c2ccncc2)ccn2c(=O)c(C(=O)O)cc(C3CC3)c12 [Example 16 K salt, 1-cyclopropyl-9-methyl-4-oxo-8-(pyridin-4-yl)-4H-quinolizine-3-carboxylic acid]	0.016	0.016	0.5 to 1	–	0.064	0.125	0.032	0.125	–	0.125	≤ 0.004	0.125	0.016	0.063	0.125	0.125	0.016 to 0.031	0.031	–	–	–
